# From PMC6778861, “Radiosynthesis and Preclinical Evaluation of ^11C-VA426, a Cyclooxygenase-2 Selective Ligand” (Contrast Media & Molecular Imaging, 2019)
# Columns and labels:
# [1] = tested on: COX-2; design: method as in PMID 18598017; settings: in vitro; cited from earlier work
# [2] = design: method as in PMID 18598017; settings: previous study; cited from earlier work
# [3] = Ex vivo biodistribution kinetic profile in healthy rats; design: species or system Sprague Dawley rats
# Procedure: Nine SD rats were injected through the tail vein with 9.25 ± 2.5 MBq of ^11C-VA426 and euthanized under general anaesthesia, with a mixture of 4% isoflurane in air, at different time points (10, 30, and 60 minutes) from injection (n = 3 per time). Blood was collected by retro-orbital sampling immediately before the sacrifice. Plasma was separated by centrifugation, and 100 μL of blood and plasma were counted in a γ-counter (LKB Compugamma CS 1282). Peripheral organs (heart, lung, liver, intestine, kidney, testis, and muscle) and brain regions (frontal, right and left cortex, right and left striatum, hippocampus, thalamus, hypothalamus, pons, and cerebellum) were immediately removed and rinsed in cold saline solution. Each sample was then placed in a test tube and weighed, and the radioactivity was measured using a γ-counter (LKB Compugamma CS 1282). An additional aliquot (0.1 mL) of radioactive solution was diluted to 1 : 10, 1 : 100, and 1 : 1000 and used to calculate the standard curve. Radioactivity concentration was calculated as the percentage of injected dose per gram of tissue (%ID/g).
# [4] = molecular target: T1, COX-2 (Rattus norvegicus, UniProt P35355); assay: Specificity (celecoxib competition) study in healthy rats; format: in vivo, Sprague Dawley rats; settings: 30 min p.i.
# T1 construct: from tissue; host or cells: peripheral organs and brain regions of Sprague Dawley rats (in vivo / ex vivo biodistribution)
# T1 sequence (P35355 18-604): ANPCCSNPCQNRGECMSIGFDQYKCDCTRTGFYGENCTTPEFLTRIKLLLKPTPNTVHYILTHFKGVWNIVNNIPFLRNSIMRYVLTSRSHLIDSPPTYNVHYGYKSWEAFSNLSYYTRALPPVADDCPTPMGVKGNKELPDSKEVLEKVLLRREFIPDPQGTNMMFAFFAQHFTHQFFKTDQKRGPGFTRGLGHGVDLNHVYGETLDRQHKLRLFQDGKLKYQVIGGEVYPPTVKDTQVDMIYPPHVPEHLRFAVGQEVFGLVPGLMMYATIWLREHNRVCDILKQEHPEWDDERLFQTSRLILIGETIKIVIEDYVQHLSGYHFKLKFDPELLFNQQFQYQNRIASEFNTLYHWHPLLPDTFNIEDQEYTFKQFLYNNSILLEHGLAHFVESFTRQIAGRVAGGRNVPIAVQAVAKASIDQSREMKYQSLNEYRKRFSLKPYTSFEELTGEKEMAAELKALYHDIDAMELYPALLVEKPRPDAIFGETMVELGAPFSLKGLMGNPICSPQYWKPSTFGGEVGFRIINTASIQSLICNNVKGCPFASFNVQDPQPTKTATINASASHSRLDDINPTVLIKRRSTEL
# Procedure: In order to evaluate the radiotracer binding specificity to COX-2 in healthy rats, a competition study was performed. Two minutes before the intravenous injection of ^11C-VA426, four animals were pretreated with the COX-2 specific inhibitor celecoxib (Sigma-Aldrich, Italy) (10 mg/kg, i.v.) and four animals with vehicle solution alone (100 μl of DMSO, Sigma-Aldrich). All rats were then injected intravenously with 9.25 ± 2.7 MBq of ^11C-VA426 and sacrificed at the time of maximum uptake (30 minutes p.i.), previously assessed in the kinetic study. Central and peripheral samples were dissected as described above and counted, following the same protocol used for the biodistribution kinetic study. Radioactivity concentration in samples was calculated as %ID/g.
# [5] = molecular target: T1, COX-2; assay: Biodistribution kinetic profile in brain inflammation (intrastriatal LPS) rat model; format: in vivo, Sprague Dawley rats; settings: rats
# Procedure: In order to trigger nigrostriatal inflammation, eighteen SD rats were anesthetized (zoletil, 25 mg/kg, i.p.) and stereotaxically injected into the right striatum with 3 μL (3.33 μg/μl) of lipopolysaccharide (LPS, Sigma-Aldrich, Italy) and in the contralateral hemisphere with saline (negative control) at the following coordinates: A = +0.5, L = ±3.0, and V = –5.0 mm. One day after LPS injection, the first experimental group (n = 9) was injected through the tail vein with 9.25 ± 2.2 MBq of ^11C-VA426, and three rats per time point (10, 30, and 60 minutes) were euthanized under general anaesthesia, with a mixture of 4% isoflurane in air. Central and peripheral samples were dissected as described above and counted, following the protocol described for the biodistribution kinetic study. Twelve days after LPS injection, the second group of animals (n = 9) underwent the same protocol. Radioactivity concentration in samples was calculated as %ID/g.
# [6] = Ex vivo biodistribution kinetic profile in healthy mice; design: species or system CD-1 mice; settings: i.v.
# Procedure: Male CD-1 mice were injected through the tail vein with 5.3 ± 1.4 MBq of ^11C-VA426 and sacrificed after 10, 30, and 60 minutes (n = 3 per time point) under general anaesthesia with a mixture of 4% isoflurane in air. Blood was collected by retro-orbital sampling immediately before sacrifice. Plasma was separated by centrifugation, and 100 μL of blood and plasma were counted in a γ-counter (LKB Compugamma CS 1282). Different peripheral organs (heart, lung, liver, intestine, stomach, spleen, kidney, testis, and muscle) and brain regions (cortex, striatum, hippocampus, thalamus, hypothalamus, pons, substantia nigra, and cerebellum) were immediately sampled, rinsed with cold saline, and placed in preweighed tubes for counting. Radioactivity concentration was calculated as %ID/g.
# [7] = molecular target: T2, COX-2 (Mus musculus, UniProt Q05769); assay: PET kinetic study in healthy mice; format: in vivo, CD-1 mice
# T2 construct: from tissue; host or cells: organs of living mice (PET in healthy CD-1 mice)
# T2 sequence (Q05769 18-604): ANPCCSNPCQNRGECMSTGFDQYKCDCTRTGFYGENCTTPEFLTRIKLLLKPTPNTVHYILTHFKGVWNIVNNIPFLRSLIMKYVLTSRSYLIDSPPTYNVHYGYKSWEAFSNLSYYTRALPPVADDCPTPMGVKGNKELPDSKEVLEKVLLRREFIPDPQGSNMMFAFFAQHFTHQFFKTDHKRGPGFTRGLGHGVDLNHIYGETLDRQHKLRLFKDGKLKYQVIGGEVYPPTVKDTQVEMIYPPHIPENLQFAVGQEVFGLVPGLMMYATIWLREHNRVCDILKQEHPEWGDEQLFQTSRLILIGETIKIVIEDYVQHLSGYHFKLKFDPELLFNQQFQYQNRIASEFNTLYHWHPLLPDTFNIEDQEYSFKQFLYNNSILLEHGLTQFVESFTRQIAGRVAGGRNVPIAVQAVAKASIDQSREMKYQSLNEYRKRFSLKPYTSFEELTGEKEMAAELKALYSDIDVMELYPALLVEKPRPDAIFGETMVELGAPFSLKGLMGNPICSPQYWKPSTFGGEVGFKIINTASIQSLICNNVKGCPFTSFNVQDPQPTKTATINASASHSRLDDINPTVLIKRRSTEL
# Procedure: Two CD-1 mice were anaesthetized with a mixture of 4% isoflurane in air for the imaging with the YAP-(S)PET system (ISE Srl). Each mouse was placed in a prone position on the PET scanner bed with the abdomen centred in the field of view (FOV). Five minutes before the intravenous injection of ^11C-VA426, one mouse was pretreated with the COX-2 specific inhibitor celecoxib (10 mg/kg, i.v.) in vehicle (100 μl of DMSO, mouse 1) and the other with vehicle alone (mouse 2). Mouse 1 was then injected intravenously with 1.85 MBq of ^11C-VA426 and mouse 2 with 3.7 MBq, and dynamic PET data were acquired for 30 minutes, according to the following schedule: four scans of 2.5 minutes followed by four of 5 minutes. PET data were acquired in list mode, using the full axial acceptance angle of the scanner (3D mode) and then reconstructed with the expectation maximization (EM) algorithm. All images were calibrated with a dedicated phantom, corrected for the radionuclide half-life decay, and quantified as ID/g.
# [8] = molecular target: T2, COX-2; assay: Specificity evaluation in peripheral inflammation (i.p. LPS) mouse model; format: in vivo; settings: LPS-treated mice, celecoxib 10 mg/kg i.v., 10 minutes p.i.
# Procedure: Specificity evaluation studies of ^11C-VA426 were performed on a murine model of peripheral inflammation, after COX-2 specific inhibitor administration. Six hours before the study, six mice received intraperitoneal injection of lipopolysaccharide (10 mg/Kg), in order to promote peripheral inflammation response. Three of the LPS-treated mice were injected i.v. with 10 mg/kg of celecoxib, five minutes before the ^11C-VA426 injection, to carry out a competition assay for the COX-2 binding sites. All mice were sacrificed at the time of maximum uptake (10 minutes p.i.), previously assessed in healthy mice, after 3.9 ± 1.1 MBq injection of the radiotracer. Peripheral samples were dissected and counted, as well as for biodistribution studies. Radioactivity concentration in samples was calculated as %ID/g.
# [9] = In vivo stability / radiometabolite analysis in healthy mice (HPLC); settings: 10 minutes after injection
# Procedure: Mice (n = 3) were injected through the tail vein with 3 ± 0.9 MBq of ^11C-VA426 and sacrificed 10 minutes later, under general anaesthesia. Blood was collected by retro-orbital sampling and processed to obtain plasma, as described above. Radioactive species contained in plasma were extracted by mixing an aliquot (500 μL) of plasma with CH3CN solution (1 : 1 v/v). Acetonitrile extracts were centrifuged and supernatant filtered with a MillexGX® syringe system for HPLC (Gilson Italia Srl, 321 pump, UV/VIS-151) injection. For metabolites analysis in liver, a sample was placed in a tissue homogenizer (Potter-Elvehjem) with 2 mL of saline, mechanically sheared until complete homogenization and subsequently treated as described for plasma. HPLC analyses were performed at room temperature using a C18, 250 × 10 mm, 5 μm column, CH3CN/AcONH4 0.05 M (60/40, v/v) as mobile phase, a flow rate of 4.5 mL/min, and UV = 254 nm. Eluted fractions were collected every 30 seconds, for a total of 14 minutes, and counted with a γ-counter (LKB Compugamma CS 1282).
# [10] = celecoxib 10 mg/kg i.v. vs vehicle
structure (smiles),measurement,setting,value
"COCCc1cc(-c2ccc(S(C)(=O)=O)cc2)n(-c2ccc(F)cc2)c1C [VA426, 1-(4-fluorophenyl)-3-(2-methoxyethyl)-2-methyl-5-(4-(methylsulfonyl)phenyl)-1H-pyrrole]",IC50,[1],18 nM
same,Selectivity Index (IC50 COX-1/IC50 COX-2),[1],> 5555
same,toxic effects,[2],without toxic effects
Cc1c(CCO[11CH3])cc(-c2ccc(S(C)(=O)=O)cc2)n1-c1ccc(F)cc1 [^11C-VA426],penetration through the BBB,[3]; brain distribution data,good radioactivity penetration through the BBB
same,time of highest radioactivity concentration in brain,[3]; i.v.,10 min p.i.
same,radioactivity uptake in liver,"[3]; i.v., 30 min p.i., n = 3",0.81 ± 0.28 %ID/g
same,change of uptake in intestine after celecoxib pretreatment,[4]; [10],−39%
same,change of uptake in kidney after celecoxib pretreatment,[4]; [10],−36%
same,change of uptake in liver after celecoxib pretreatment,[4]; [10],−65%
same,difference of uptake between vehicle and celecoxib pretreated rats,[4]; peripheral tissues and central areas,no significant differences
same,"difference of concentration in striatum, lesioned hemisphere vs contralateral PBS-injected control","[5]; one day after LPS, 10, 30 and 60 minutes",no significant differences
same,tracer uptake in contralateral healthy cortex,"[5]; one day after intrastriatal LPS, 60 min p.i.",0.087 ± 0.012 %ID/g
same,"difference between LPS-treated and healthy contralateral hemisphere, all regions",[5]; twelve days after LPS injection,no differences were found
same,time of maximum radioactivity concentration in all brain regions,[6],10 minutes after tracer injection
same,time of maximum uptake in liver,[6],10 minutes after injection
same,maximum radioactivity concentration in pons,[6]; 10 minutes after injection,2.69 ± 0.81 %ID/g
same,maximum uptake in liver,[6]; 10 minutes after injection,7.72 ± 2.52 %ID/g
same,PET radioactivity distribution,"[7]; healthy mice, 0 to 30 minutes after injection",accumulates rapidly and primarily in the liver and kidneys
same,effect of celecoxib pretreatment on PET radioactivity distribution,"[7]; healthy mouse, celecoxib 10 mg/kg i.v., 10 and 30 minutes",slightly reduced radioactivity distribution in intestine regions
same,effect of celecoxib on tracer uptake (%ID/g) in all peripheral regions including plasma,[8],dramatic reduction in tracer uptake
same,"first radioactive metabolite, fraction of total radioactivity in liver",[9]; healthy mice,39.8%
same,"parent compound, fraction of total activity in liver",[9]; healthy mice,34.9%
same,"parent compound, fraction of total activity in plasma",[9]; healthy mice,47.1%
same,"radioactive metabolite (retention time 3 min), fraction of total radioactivity in plasma",[9]; healthy mice,45.1%
same,"radioactive metabolite (retention time 5 min), fraction of total radioactivity in plasma",[9]; healthy mice,6.6%
same,"second radioactive metabolite, fraction of total radioactivity in liver",[9]; healthy mice,21.6%
same,"third radioactive metabolite (11.5 min of retention time), fraction of total radioactivity in liver",[9]; healthy mice,3.3%
same,radioactivity due to radioactive metabolites,[9]; plasma and liver,over 50%
